Assay results reported in ChEMBL document CHEMBL5346921, “Discovery of novel benzamide derivatives bearing benzamidophenyl and phenylacetamidophenyl scaffolds as potential antitumor agents via targeting PARP-1” (Eur J Med Chem, 2023).
Active and inactive are the calls of the source. The rule behind the calls is not given here.

Key:
SW480 = assay: cells; conditions: Homo sapiens, SW480, 48 h
Description: Antiproliferative activity against human SW480 cells assessed as reduction in cell viability incubated for 48 hrs by MTT assay

DLD-1 = assay: Antiproliferative activity against human DLD-1 cells assessed as reduction in cell viability incubated for 48 hrs by MTT assay; assay type: functional, cell-based; conditions: DLD-1, 48 h
HCT-116 [1] = assay: cells; conditions: Homo sapiens, HCT-116, 48 h
[2] = Cytotoxicity against human NCM460 cells assessed as reduction in cell viability incubated for 48 hrs by MTT assay; assay type: toxicity, cell-based
[3] = Selectivity index, ratio of IC50 for cytotoxicity against human NCM460 cells to IC50 for antiproliferative activity against human HCT-116 cells; assay type: toxicity, cell-based; conditions: NCM460 cells and HCT-116 cells, read-out: Ratio IC50
[4] = molecular target: Poly [ADP-ribose] polymerase 1 (Homo sapiens, UniProt P09874); assay: Inhibition of human PARP-1 by ELISA
[5] = molecular target: Poly [ADP-ribose] polymerase 2 (Homo sapiens, UniProt Q9UGN5); assay: Inhibition of human PARP-2 by ELISA
HCT-116 [6] = assay: Induction of mitochondrial membrane potential loss in human HCT-116 cells assessed as JC-1 monomer level by measuring green fluorescence intensity at 15 uM incubated for 48 hrs by JC-1 staining based flow cytometry (reference value: 3.28%); assay type: functional
HCT-116 [7] = assay: Induction of mitochondrial membrane potential loss in human HCT-116 cells assessed as JC-1 aggregate level by measuring red fluorescence intensity at 15 uM incubated for 48 hrs by JC-1 staining based flow cytometry (reference value: 96.72%); assay type: functional
HCT-116 [8] = assay: Induction of mitochondrial membrane potential loss in human HCT-116 cells assessed as increase in monomer JC-1 level by measuring green fluorescence intensity at 15 uM incubated for 48 hrs by immunofluorescence analysis; assay type: functional, cell-based

Poly [ADP-ribose] polymerase 2, sequence (Q9UGN5 whole entry): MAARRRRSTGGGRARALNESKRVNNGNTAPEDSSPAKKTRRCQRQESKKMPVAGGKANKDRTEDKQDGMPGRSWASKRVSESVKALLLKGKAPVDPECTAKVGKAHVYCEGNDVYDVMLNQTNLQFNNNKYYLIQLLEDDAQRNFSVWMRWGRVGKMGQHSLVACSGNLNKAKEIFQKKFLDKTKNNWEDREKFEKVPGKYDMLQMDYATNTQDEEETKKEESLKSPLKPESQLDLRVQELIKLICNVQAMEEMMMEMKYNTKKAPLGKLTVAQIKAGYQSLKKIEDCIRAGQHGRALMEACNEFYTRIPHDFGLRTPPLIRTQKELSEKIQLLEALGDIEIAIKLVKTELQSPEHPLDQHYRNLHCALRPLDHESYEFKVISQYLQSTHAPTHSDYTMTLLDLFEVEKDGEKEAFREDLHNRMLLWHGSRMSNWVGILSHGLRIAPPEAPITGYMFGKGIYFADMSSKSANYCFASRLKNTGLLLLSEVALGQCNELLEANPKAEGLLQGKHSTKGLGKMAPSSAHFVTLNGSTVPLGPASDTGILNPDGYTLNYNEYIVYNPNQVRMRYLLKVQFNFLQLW
Poly [ADP-ribose] polymerase 1, sequence (P09874 whole entry): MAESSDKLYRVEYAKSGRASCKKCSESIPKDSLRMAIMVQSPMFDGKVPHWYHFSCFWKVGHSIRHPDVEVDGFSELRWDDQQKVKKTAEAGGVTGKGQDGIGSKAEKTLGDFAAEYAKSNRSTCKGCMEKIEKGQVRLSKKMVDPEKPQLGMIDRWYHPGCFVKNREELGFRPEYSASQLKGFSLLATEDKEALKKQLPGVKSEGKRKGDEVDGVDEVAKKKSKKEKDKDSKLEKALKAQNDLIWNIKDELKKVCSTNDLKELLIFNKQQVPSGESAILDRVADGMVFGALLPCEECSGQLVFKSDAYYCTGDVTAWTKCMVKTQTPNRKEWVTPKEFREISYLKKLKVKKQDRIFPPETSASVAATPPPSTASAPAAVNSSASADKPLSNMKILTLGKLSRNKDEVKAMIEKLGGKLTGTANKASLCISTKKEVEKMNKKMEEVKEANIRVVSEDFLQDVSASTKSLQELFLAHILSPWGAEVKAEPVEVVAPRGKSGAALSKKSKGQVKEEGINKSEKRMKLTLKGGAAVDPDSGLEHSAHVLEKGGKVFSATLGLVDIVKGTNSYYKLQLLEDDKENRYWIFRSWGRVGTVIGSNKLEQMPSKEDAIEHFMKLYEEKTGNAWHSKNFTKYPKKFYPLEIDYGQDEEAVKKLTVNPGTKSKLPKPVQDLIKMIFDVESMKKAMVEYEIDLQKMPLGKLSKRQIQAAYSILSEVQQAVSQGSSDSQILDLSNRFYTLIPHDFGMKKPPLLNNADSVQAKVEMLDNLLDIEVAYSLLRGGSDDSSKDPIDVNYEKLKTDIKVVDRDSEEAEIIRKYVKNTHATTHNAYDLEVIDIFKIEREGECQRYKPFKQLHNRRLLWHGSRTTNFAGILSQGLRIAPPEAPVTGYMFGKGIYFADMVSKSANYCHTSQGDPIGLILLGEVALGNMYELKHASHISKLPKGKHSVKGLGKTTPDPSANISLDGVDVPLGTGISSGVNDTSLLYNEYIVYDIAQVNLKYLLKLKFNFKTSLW

Row | Structure (SMILES) | IC50 (SW480) | IC50 (DLD-1) | IC50 (HCT-116 [1]) | IC50 at 48 h [2] | selectivity ratio [3] | IC50 [4] | IC50 [5] | Activity (HCT-116 [6]) | Activity (HCT-116 [7]) | Activity (HCT-116 [8])
1 | NC(=O)c1ccccc1NCc1cccc(NC(=O)c2ccc(Br)cc2)c1 | 37 µM | 44.5 µM | 37.9 µM | 60.2 µM | 1.59 | – | – | – | – | –
2 | NC(=O)c1ccccc1OCc1cccc(NC(=O)Cc2ccccc2Br)c1 | 8.11 µM | 9.69 µM | 8.09 µM | 183 µM | 22.6 | – | – | – | – | –
3 | NC(=O)c1ccccc1NCc1cccc(NC(=O)Cc2cccc(Cl)c2)c1 | > 100 µM | 9.14 µM | 75.9 µM | 77.2 µM | 1.02 | – | – | – | – | –
4 | NC(=O)c1ccccc1OCc1cccc(NC(=O)c2cccc(Cl)c2)c1 | > 100 µM | 45.5 µM | 39.6 µM | 419 µM | 10.6 | – | – | – | – | –
5 | NC(=O)c1ccccc1NCc1cccc(NC(=O)c2cccc(Cl)c2)c1 | 62.4 µM | 45.4 µM | 26.4 µM | 200 µM | 7.58 | – | – | – | – | –
6 | NC(=O)c1ccccc1NCc1cccc(NC(=O)Cc2ccccc2Cl)c1 | 10.7 µM | 29.4 µM | 13.8 µM | 65 µM | 4.72 | – | – | – | – | –
7 | NC(=O)c1ccccc1NCc1cccc(NC(=O)Cc2ccc(Cl)cc2)c1 | 20.2 µM | 7.86 µM | 15.7 µM | 14 µM | 0.9 | – | – | – | – | –
8 | NC(=O)c1ccccc1OCc1cccc(NC(=O)Nc2cccc(Br)c2)c1 | 25.1 µM | 13.2 µM | 8.93 µM | 134 µM | 12.5 | – | – | – | – | –
9 | NC(=O)c1ccccc1OCc1cccc(NC(=O)c2ccc(Cl)cc2)c1 | 33.3 µM | 13 µM | 0.33 µM | 340 µM | 1020 | 0.00128 µM | 0.00436 µM | – | – | –
10 | NC(=O)c1ccccc1OCc1cccc(NC(=O)Cc2ccc(Br)cc2)c1 | 30.8 µM | 18.1 µM | 4.1 µM | 78 µM | 19 | – | – | – | – | –
11 | O=C(c1cc(Cc2n[nH]c(=O)c3ccccc23)ccc1F)N1CCN(C(=O)C2CC2)CC1 [OLAPARIB] | 39.3 µM | 13.7 µM | 26.4 µM | 319 µM | – | – | – | 16.33% | 83.67% | Active
12 | NC(=O)c1ccccc1OCc1cccc(NC(=O)Cc2cccc(Cl)c2)c1 | 5.48 µM | 22 µM | 7.38 µM | 72.2 µM | 9.79 | – | – | – | – | –
13 | NC(=O)c1ccccc1OCc1cccc(NC(=O)c2ccccc2Br)c1 | 16.9 µM | 47 µM | 60.1 µM | 161 µM | 2.68 | – | – | – | – | –
14 | NC(=O)c1ccccc1OCc1cccc(NC(=O)Cc2cccc(Br)c2)c1 | 16 µM | 14.9 µM | 6.33 µM | 91.2 µM | 14.4 | – | – | – | – | –
15 | NC(=O)c1ccccc1OCc1cccc(NC(=O)Cc2ccc(Cl)cc2)c1 | 27.4 µM | 19.6 µM | 5.86 µM | 286 µM | 48.8 | – | – | – | – | –
16 | NC(=O)c1ccccc1OCc1cccc(NC(=O)c2ccccc2Cl)c1 | 11.6 µM | 36.4 µM | 35.3 µM | 131 µM | 3.72 | – | – | – | – | –
17 | NC(=O)c1ccccc1NCc1cccc(NC(=O)Cc2cccc(Br)c2)c1 | 8.82 µM | 22.8 µM | 23.4 µM | 129 µM | 5.52 | – | – | – | – | –
18 | NC(=O)c1ccccc1OCc1cccc(NC(=O)c2cccc(Br)c2)c1 | > 100 µM | 64.9 µM | > 100 µM | 238 µM | – | – | – | – | – | –
19 | NC(=O)c1ccccc1NCc1cccc(NC(=O)c2ccccc2Br)c1 | 17.2 µM | 35 µM | 22.9 µM | 65.8 µM | 2.88 | – | – | – | – | –
20 | NC(=O)c1ccccc1NCc1cccc(NC(=O)c2ccc(Cl)cc2)c1 | 61.1 µM | 11.8 µM | 45.2 µM | 563 µM | 12.5 | – | – | – | – | –
21 | NC(=O)c1ccccc1OCc1cccc(NC(=O)Cc2ccccc2Cl)c1 | 12.7 µM | 18.7 µM | 22.1 µM | 98.7 µM | 4.48 | – | – | – | – | –
22 | NC(=O)c1ccccc1NCc1cccc(NC(=O)Cc2ccccc2Br)c1 | 14 µM | 11.7 µM | 20.7 µM | 69.4 µM | 3.35 | – | – | – | – | –
23 | NC(=O)c1ccccc1NCc1cccc(NC(=O)Cc2ccc(Br)cc2)c1 | 8.71 µM | 14 µM | 19.6 µM | 51.3 µM | 2.62 | – | – | – | – | –
24 | NC(=O)c1ccccc1NCc1cccc(NC(=O)c2cccc(Br)c2)c1 | 5.08 µM | 10 µM | 5.69 µM | 73.5 µM | 12.9 | – | – | – | – | –
25 | NC(=O)c1ccccc1NCc1cccc(NC(=O)c2ccccc2Cl)c1 | 31.7 µM | 9.14 µM | 37.8 µM | 105 µM | 2.78 | – | – | – | – | –
26 | NC(=O)c1ccccc1NCc1cccc(NC(=O)Nc2cccc(Br)c2)c1 | 19.8 µM | 7.7 µM | 7.87 µM | 154 µM | 17.9 | – | – | – | – | –
